Source: patent publication US20120245177A1, “CRYSTALLINE LEVOFOLINIC ACID AND PROCESS FOR ITS PREPARATION” (GMT FINE CHEMICALS SA, priority 2011, published 2012)

How the values were obtained:
Type in all cases: physicochemical
[1] = Long-term stability test (ICH conditions); details: for Assay of Levofolinic acid (% m/m): anhydrous and solvent free basis; for Appearance: specification white to pale yellow powder
Protocol: Two specimens of the product obtained in example 1 are subjected to accelerated stability tests and long-term stability tests, respectively; the tests are carried out according to ICH conditions. Long-term: 25±2° C., 60±5% relative humidity Analytical methods used for the stability studies tests are described in the calcium levofolinate monograph of the European Pharmacopoeia.

[2] = Accelerated stability test (ICH conditions); details: accelerated: 40±2° C., 75±5% relative humidity; for Assay of Levofolinic acid (% m/m): anhydrous and solvent free basis; for Appearance: specification white to pale yellow powder
Protocol: Two specimens of the product obtained in example 1 are subjected to accelerated stability tests and long-term stability tests, respectively; the tests are carried out according to ICH conditions. Accelerated: 40±2° C., 75±5% relative humidity Analytical methods used for the stability studies tests are described in the calcium levofolinate monograph of the European Pharmacopoeia.

[3] = Solubility in water or hydroalcoholic mixtures; details: pH range between 3.0 and 4.5
[4] = long-term: 25±2° C., 60±5% relative humidity, 18 months
[5] = long-term: 25±2° C., 60±5% relative humidity, 24 months
[6] = long-term: 25±2° C., 60±5% relative humidity, 36 months

Nc1nc(=O)c2c([nH]1)NC[C@H](CNc1ccc(C(=O)N[C@@H](CCC(=O)O)C(=O)O)cc1)N2C=O [Example 1, (6S)—N(5)-formyl-5,6,7,8-tetrahydrofolic acid]
Related substances: PABG (A) (% area) [1, 4]: 0.11 % area
Sum of all relates substances (% area) [1, 4]: 0.63 % area
Water content (%) [1, 4]: 0.9%
Assay of Levofolinic acid (% m/m) [1, 4]: 100.2 % m/m
Appearance [1, 4]: Conform
Aspect of a 1.0% m/V solution in Tris solution corrected at pH = 8.1: Absorbance at 420 nm [1, 5]: 0.06
Content of Dextrofolinic acid (H) [1, 5]: <0.10%
Related substances: 5-CHO-4H-Pteroic acid (E) (% area) [1, 5]: 0.31 % area
Related substances: Any individual unknown impurities [1, 5]: <0.10 % area
Related substances: Dihydrofolic acid (G) (% area) [1, 5]: <0.10 % area
Related substances: Folic acid (C) (% area) [1, 5]: <0.10 % area
Related substances: N^5-N^10-diformyl-THF (B) (% area) [1, 5]: <0.10 % area
Related substances: N^10-CHO-dihydrofolic acid (F) (% area) [1, 5]: 0.16 % area
Related substances: N^10-CHO-folic acid (D) (% m/m) [1, 5]: <0.10 % m/m
Related substances: PABG (A) (% area) [1, 5]: 0.13 % area
Sum of all relates substances (% area) [1, 5]: 0.66 % area
Water content (%) [1, 5]: 0.7%
Assay of Levofolinic acid (% m/m) [1, 5]: 99.4 % m/m
Appearance [1, 5]: Conform
Aspect of a 1.0% m/V solution in Tris solution corrected at pH = 8.1: Absorbance at 420 nm [1, 6]: 0.08
Content of Dextrofolinic acid (H) [1, 6]: <0.10%
Optical rotation of a 1.0% m/V solution in Tris solution corrected at pH = 8.1 [1, 6]: −14.9°
Related substances: 5-CHO-4H-Pteroic acid (E) (% area) [1, 6]: 0.33 % area
Related substances: Any individual unknown impurities [1, 6]: <0.10 % area
Related substances: Dihydrofolic acid (G) (% area) [1, 6]: <0.10 % area
Related substances: Folic acid (C) (% area) [1, 6]: <0.10 % area
Related substances: N^5-N^10-diformyl-THF (B) (% area) [1, 6]: <0.10 % area
Related substances: N^10-CHO-dihydrofolic acid (F) (% area) [1, 6]: 0.25 % area
Related substances: N^10-CHO-folic acid (D) (% m/m) [1, 6]: <0.10 % m/m
Related substances: PABG (A) (% area) [1, 6]: 0.16 % area
Sum of all relates substances (% area) [1, 6]: 0.73 % area
Water content (%) [1, 6]: 1.0%
Assay of Levofolinic acid (% m/m) [1, 6]: 99.6 % m/m
Appearance [1, 6]: Conform
Stability (conclusion from stability data of tables 2 and 3) ([1]; may resist unaltered during a shelf-life of up to three years): stable
Stability compared with known forms ([1]; versus calcium levofolinate of the known art or levofolinic acid amorphous of U.S. Pat. No. 5,134,235): better properties
Aspect of a 1.0% w/v solution in Tris buffer solution corrected at pH = 8.1: Absorbance at 420 nm ([2]; 0 months): 0.06
Content of Dextrofolinic acid (H) ([2]; 0 months): <0.10%
Optical rotation of a 1.0% w/v solution in Tris solution corrected at pH = 8.1 ([2]; 0 months): −12.8 °
Related substances: 5-CHO—4H-Pteroic acid (E) (% area) ([2]; 0 months): 0.36 % area
Related substances: Any individual unknown impurities ([2]; 0 months): <0.10 % area
Related substances: Dihydrofolic acid (G) (% area) ([2]; 0 months): <0.10 % area
Related substances: Folic acid (C) (% area) ([2]; 0 months): <0.10 % area
Related substances: N^5-N^10-diformyl-THF (B) (% area) ([2]; 0 months): <0.10 % area
Related substances: N^10—CHO-dihydrofolic acid (F) (% area) ([2]; 0 months): <0.10 % area
Related substances: N^10—CHO-folic acid (D) (% m/m) ([2]; 0 months): <0.10 % m/m
Related substances: PABG (A) (% area) ([2]; 0 months): <0.10 % area
Sum of all relates substances (% area) ([2]; 0 months): 0.57 % area
Water content (%) ([2]; 0 months): 0.8%
Assay of Levofolinic acid (% m/m) ([2]; 0 months): 99.7 % m/m
Appearance ([2]; 0 months): Conform
Aspect of a 1.0% w/v solution in Tris buffer solution corrected at pH = 8.1: Absorbance at 420 nm ([2]; 3 months): 0.05
Related substances: 5-CHO—4H-Pteroic acid (E) (% area) ([2]; 3 months): 0.37 % area
Related substances: Any individual unknown impurities ([2]; 3 months): <0.10 % area
Related substances: Dihydrofolic acid (G) (% area) ([2]; 3 months): <0.10 % area
Related substances: Folic acid (C) (% area) ([2]; 3 months): <0.10 % area
Related substances: N^5-N^10-diformyl-THF (B) (% area) ([2]; 3 months): <0.10 % area
Related substances: N^10—CHO-dihydrofolic acid (F) (% area) ([2]; 3 months): 0.16 % area
Related substances: N^10—CHO-folic acid (D) (% m/m) ([2]; 3 months): <0.10 % m/m
Related substances: PABG (A) (% area) ([2]; 3 months): <0.10 % area
Sum of all relates substances (% area) ([2]; 3 months): 0.63 % area
Water content (%) ([2]; 3 months): 0.8%
Assay of Levofolinic acid (% m/m) ([2]; 3 months): 99.9 % m/m
Appearance ([2]; 3 months): Conform
Aspect of a 1.0% w/v solution in Tris buffer solution corrected at pH = 8.1: Absorbance at 420 nm ([2]; 6 months): 0.06
Content of Dextrofolinic acid (H) ([2]; 6 months): <0.10%
Related substances: 5-CHO—4H-Pteroic acid (E) (% area) ([2]; 6 months): 0.33 % area
Related substances: Any individual unknown impurities ([2]; 6 months): <0.10 % area
Related substances: Dihydrofolic acid (G) (% area) ([2]; 6 months): <0.10 % area
Related substances: Folic acid (C) (% area) ([2]; 6 months): <0.10 % area
Related substances: N^5-N^10-diformyl-THF (B) (% area) ([2]; 6 months): <0.10 % area
Related substances: N^10—CHO-dihydrofolic acid (F) (% area) ([2]; 6 months): 0.25 % area
Related substances: N^10—CHO-folic acid (D) (% m/m) ([2]; 6 months): <0.10 % m/m
Related substances: PABG (A) (% area) ([2]; 6 months): 0.13 % area
Sum of all relates substances (% area) ([2]; 6 months): 0.84 % area
Water content (%) ([2]; 6 months): 1.1%
Assay of Levofolinic acid (% m/m) ([2]; 6 months): 99.0 % m/m
Appearance ([2]; 6 months): Conform
Solubility [3]: scarcely soluble
